Conditions: Liquid, Vibrating tube method

C1CC[C@H]2CCCC[C@H]2C1 [cis-decahydronaphthalene]
mass density [kg/m3]
Conditions	303.15 K	323.15 K	343.15 K
100 kPa	888.5	873.2	857.8
5000 kPa	891.4	876.5	861.5
10000 kPa	894.4	879.8	865.1
15000 kPa	897.3	883	868.6
20000 kPa	899.9	886	871.9
25000 kPa	902.8	889	875.1
30000 kPa	905.5	891.8	878.3
35000 kPa	908	894.6	881.2
40000 kPa	910.6	897.3	884.1
45000 kPa	913	899.9	887
50000 kPa	915.3	902.4	889.7
55000 kPa	917.6	904.8	892.3
60000 kPa	919.9	907.3	894.9
65000 kPa	922.1	909.6	897.4
